Experimental findings from patent publication US11639350B2, “Heteroaryldihydropyrimidine derivatives and methods of treating hepatitis B infections” (Janssen Pharmaceutica NV, priority 2018, dated 2023) are described below.

Like-named read-outs stand apart in the source and are kept apart here.

For one data set, the system named is HepG2.2.15 cells. Briefly: Cytotoxicity determination in HepG2.2.15 cells (CCK-8). As to conditions: 6 days of compound treatment, CCK-8, highest concentration 100 μM. The format is cell-based. Summed up:
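HepG2.2.15 cells seeded at 5,000 cells/well in 2% FBS medium, incubated overnight at 37° C., then treated 6 days with compounds (8 points, 3-fold dilutions, top 100 μM), medium refreshed once midway. CCK-8 added for 2.5 h; A450 read against 630 nm reference; CC50 calculated, averaged over repeats.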

In a further data set the test system is HBV. Description: HBV inhibitory activity: HBV DNA in the culture medium of HepG2.2.15 cells by q-PCR. Format: cell-based. As to conditions: HepG2.2.15 cells, 6 days of compound treatment, HBV DNA in culture medium by q-PCR, highest concentration 10 μM, read-out: EC50. Summed up: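 HepG2.2.15 cells in 2% FBS medium, 40,000 per well, treated 6 days with compound (medium refreshed once), eight 3-fold dilutions from 10 μM top. HBV DNA extracted from culture medium and quantified by q-PCR; EC50 averaged over repeats. Cytotoxicity run in parallel at 5,000 cells per well, top 100 μM, giving CC50.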

The mark [1] stands for this setting: Hepatitis B virus, HepG2.2.15, 144 h.

Compound `COC(=O)C1=C(C2CCCN(S(C)(=O)=O)C2)NC(c2nccs2)=NC1c1ccc(F)cc1Cl` (single isomer, unassigned) [Compound 33A, Methyl 4-(2-chloro-4-fluorophenyl)-6-(1-(methylsulfonyl)piperidin-3-yl)-2-(thiazol-2-yl)-1,4-dihydropyrimidine-5-carboxylate] gave a 50% cytotoxic concentration (CC50) in the data set on HepG2.2.15 cells of 78.1 µM. The EC50 in the data set on HBV came to 0.19 µM.
Turning to `CCOC(=O)C1=C(C2CCN(S(=O)(=O)CC3CC(C(=O)O)C3)CC2)NC(c2nccs2)=NC1c1ccc(F)c(F)c1Cl` (stereo not drawn) [Compound 480Y, 3-(((4-(6-(2-Chloro-3,4-difluorophenyl)-5-(ethoxycarbonyl)-2-(thiazol-2-yl)-3,6-dihydropyrimidin-4-yl)piperidin-1-yl)sulfonyl)methyl)cyclobutanecarboxylic Acid], the CC50 in the data set with HepG2.2.15 cells stood at 10.2 µM. The EC50 in the data set on HBV was 0.011 µM.
As to `COC(=O)C1=C(C2C[C@@H]3CN(S(C)(=O)=O)C[C@@H]3C2)NC(c2nccs2)=NC1c1ccc(F)cc1Cl` (single isomer, unassigned) [Compound 176D, Methyl 4-(2-chloro-4-fluorophenyl)-6-((cis)-2-(methylsulfonyl)-octahydrocyclopenta[c]pyrrol-5-yl)-2-(thiazol-2-yl)-1,4-dihydropyrimidine-5-carboxylate], in the data set on HepG2.2.15 cells, half-maximal cytotoxicity (CC50) was put at 11 µM. For the same compound, in the data set with HBV (setting [1]), the EC50 is 0.7 µM.
For the compound `CCOC(=O)C1=C([C@H]2CCC[C@H](C(=O)O)CC2)NC(c2nccs2)=NC1c1ccc(F)c(F)c1Cl` (single isomer, unassigned) [Compound 302F, (trans)-4-(−6-(2-Chloro-3,4-difluorophenyl)-5-(ethoxycarbonyl)-2-(thiazol-2-yl)-3,6-dihydropyrimidin-4-yl)cycloheptanecarboxylic Acid], in the data set on HepG2.2.15 cells, the 50% cytotoxic concentration (CC50) was 10.3 µM. Further, the EC50 in the data set with HBV worked out at 0.037 µM.
Compound `COC(=O)C1=C(C2COC(CO)C2)NC(c2nccs2)=NC1c1cccc(F)c1Cl` (single isomer, unassigned) [Compound 219H, Methyl 4-(2-chloro-3-fluorophenyl)-6-(5-(hydroxymethyl)-tetrahydrofuran-3-yl)-2-(thiazol-2-yl)-1,4-dihydropyrimidine-5-carboxylate] displayed a cytotoxic concentration (CC50) in the data set on HepG2.2.15 cells of 1.5 µM. For the same compound, the EC50 with HBV is 0.334 µM.
The corresponding values for `COC(=O)C1=C(C2CCC(=O)N2)NC(c2nccs2)=NC1c1cccc(F)c1Cl` (single isomer, unassigned) [Compound 75A, Methyl 4-(2-chloro-3-fluorophenyl)-6-(5-oxopyrrolidin-2-yl)-2-(thiazol-2-yl)-1,4-dihydropyrimidine-5-carboxylate] are 32.3 µM and 0.213 µM.
The corresponding values for `COC(=O)C1=C(C2CCCOC2)NC(c2nccs2)=NC1c1ccc(F)cc1Cl` (single isomer, unassigned) [Compound 48D, Methyl 4-(2-chloro-4-fluorophenyl)-6-(tetrahydro-2H-pyran-3-yl)-2-(thiazol-2-yl)-1,4-dihydropyrimidine-5-carboxylate] are greater than 100 µM and 0.21 µM.
In the data set on HepG2.2.15 cells, `CCCS(=O)(=O)N1CCC(C2=C(C(=O)OC)C(c3ccc(F)cc3Cl)N=C(c3nccs3)N2)C1` (single isomer, unassigned) [Compound 256D, Methyl 4-(2-chloro-4-fluorophenyl)-6-(−1-(propylsulfonyl)pyrrolidin-3-yl)-2-(thiazol-2-yl)-1,4-dihydropyrimidine-5-carboxylate] had a CC50 of 22.9 µM. For the same compound, in the data set on HBV, the EC50 is 0.964 µM.
In turn, `COC(=O)C1=C([C@H]2CC[C@H](NS(C)(=N)=O)CC2)NC(c2nccs2)=NC1c1ccc(F)cc1Cl` (single isomer, unassigned) [Compound 287B, Methyl 4-(2-chloro-4-fluorophenyl)-6-((trans)-4-(methylsulfonoimidamido)cyclohexyl)-2-(thiazol-2-yl)-1,4-dihydropyrimidine-5-carboxylate] gave a 50% cytotoxic concentration (CC50) in the data set on HepG2.2.15 cells of 23.1 µM. The EC50 in the data set on HBV (setting [1]) worked out at 0.072 µM.
For `COC(=O)C1=C(C2CCN(C)C(=O)C2)NC(c2nccs2)=NC1c1ccc(F)cc1Cl` (single isomer, unassigned) [Compound 1A, Methyl 4-(2-chloro-4-fluorophenyl)-6-(1-methyl-2-oxopiperidin-4-yl)-2-(thiazol-2-yl)-1,4-dihydropyrimidine-5-carboxylate], the midpoint of cytotoxicity in the data set on HepG2.2.15 cells, the CC50, lay at 90.2 µM. Moreover, the EC50 in the data set with HBV was determined as 0.386 µM.
The compound `COC(=O)C1=C(C2CCN(S(N)(=O)=O)CC2)NC(c2nccs2)=NC1c1ccc(F)c(F)c1Cl` (stereo not drawn) [Compound 416B] yielded a CC50 in the data set on HepG2.2.15 cells of 13.5 µM. The EC50 with HBV came to 0.006 µM.
With `CCOC(=O)C1=C(C2CCN(S(=O)(=O)C3CC(C)(C(=O)O)C3)CC2)NC(c2nccs2)=NC1c1cccc(F)c1Br` (single isomer, unassigned) [Compound 414D, (cis)-3-((4-(6-(2-Bromo-3-fluorophenyl)-5-(ethoxycarbonyl)-2-(thiazol-2-yl)-3,6-dihydropyrimidin-4-yl)piperidin-1-yl)sulfonyl)-1-methylcyclobutanecarboxylic Acid], the CC50 in the data set on HepG2.2.15 cells is 16.3 µM. Further, the EC50 in the data set on HBV worked out at 0.039 µM.
The corresponding values for `COC(=O)C1=C(C2CCCC(C(=O)O)CC2)NC(c2nccs2)=NC1c1ccc(F)cc1Cl` (single isomer, unassigned) [Compound 95E, 4-(6-(2-Chloro-4-fluorophenyl)-5-(methoxycarbonyl)-2-(thiazol-2-yl)-3,6-dihydropyrimidin-4-yl)cycloheptanecarboxylic Acid] are 75 µM and 0.141 µM.
The corresponding values for `COC(=O)C1=C(C2CCC(NS(C)(=O)=O)C2)NC(c2nccs2)=NC1c1cccc(F)c1Cl` (single isomer, unassigned) [Compound 61E, Methyl 4-(2-chloro-3-fluorophenyl)-6-(3-(methylsulfonamido)cyclopentyl)-2-(thiazol-2-yl)-1,4-dihydropyrimidine-5-carboxylate] are 21.7 µM and 0.358 µM.
The corresponding values for `CCOC(=O)C1=C([C@@H]2CCC[C@H](C(=O)O)CC2)NC(c2nccs2)=NC1c1ccc(F)c(F)c1Cl` (relative stereo) [Compound 302E, (cis)-4-(−6-(2-Chloro-3,4-difluorophenyl)-5-(ethoxycarbonyl)-2-(thiazol-2-yl)-3,6-dihydropyrimidin-4-1)cycloheptanecarboxylic Acid] are 14.6 µM and 0.025 µM.
`COC(=O)C1=C(C2COC(CO)C2)NC(c2nccs2)=NC1c1cccc(F)c1Cl` (single isomer, unassigned) [Compound 219A, Methyl 4-(2-chloro-3-fluorophenyl)-6-(5-(hydroxymethyl)-tetrahydrofuran-3-yl)-2-(thiazol-2-yl)-1,4-dihydropyrimidine-5-carboxylate] returned a CC50 in the data set with HepG2.2.15 cells of 35.3 µM. Also, the EC50 in the data set with HBV worked out at 0.192 µM.
The corresponding values for `COC(=O)C1=C(C2CCN(S(=O)(=O)C3CCC(C)(C(=O)O)CC3)CC2)NC(c2nccs2)=NC1c1ccc(F)c(F)c1Cl` (single isomer, unassigned) [Compound 210A, (trans)-4-((4-(6-(2-chloro-3,4-difluorophenyl)-5-(methoxycarbonyl)-2-(thiazol-2-yl)-3,6-dihydropyrimidin-4-yl)piperidin-1-yl)sulfonyl)-1-methylcyclohexanecarboxylic Acid] are 6 µM and 0.024 µM.
For `COC(=O)C1=C(C2CCOC2)NC(c2nccs2)=NC1c1cccc(F)c1Cl` (single isomer, unassigned) [Compound 74C, Methyl 4-(2-chloro-3-fluorophenyl)-6-(tetrahydrofuran-3-yl)-2-(thiazol-2-yl)-1,4-dihydropyrimidine-5-carboxylate], the CC50 in the data set on HepG2.2.15 cells amounted to 86.5 µM. The EC50 in the data set on HBV was determined as 0.249 µM.
The corresponding values for `COC(=O)C1=C(C2CCN(S(=O)(=O)C3CCC(C)(C(=O)O)CC3)CC2)NC(c2nccs2)=NC1c1ccc(F)c(F)c1Cl` (single isomer, unassigned) [Compound 210B, (cis)-4-((4-(6-(2-chloro-3,4-difluorophenyl)-5-(methoxycarbonyl)-2-(thiazol-2-yl)-3,6-dihydropyrimidin-4-yl)piperidin-1-yl)sulfonyl)-1-methylcyclohexanecarboxylic Acid] are 9.7 µM and 0.044 µM.
The corresponding values for `COC(=O)C1=C(C2CCN(S(=O)(=O)CC3(C)CCC(C(=O)O)CC3)CC2)NC(c2nccs2)=NC1c1ccc(F)c(F)c1Cl` (single isomer, unassigned) [Compound 452A, (cis)-4-(((4-(6-(2-Chloro-3,4-difluorophenyl)-5-(methoxycarbonyl)-2-(thiazol-2-yl)-3,6-dihydropyrimidin-4-yl)piperidin-1-yl)sulfonyl)methyl)-4-methylcyclohexanecarboxylic Acid] are 9.7 µM and 0.006 µM.
The corresponding values for `COC(=O)C1=C(C2CCC(NC(C)=O)C2)NC(c2nccs2)=NC1c1ccc(F)c(F)c1Cl` (single isomer, unassigned) [Compound 300B, Methyl 6-(−3-acetamidocyclopentyl)-4-(2-chloro-3,4-difluorophenyl)-2-(thiazol-2-yl)-1,4-dihydropyrimidine-5-carboxylate] are 28.6 µM and 0.013 µM.
